Patent US8742082B2, “Compositions and methods for influencing satiety, lipid metabolism, and fat utilization” (Nestec S.A., priority 2008, dated 2014)

How the values were obtained:
[1] = tested on: Phosphoenolpyruvate carboxykinase (PEP CK); experiment: Real-time PCR gene expression in peripheral tissues: PepCK; assay type: in vivo; details: liver; C57bl6j mice, high fat diet, 100 mg/kg/body weight in diet, 5 weeks
Procedure: (§1) The expression of 45 genes was measured by real-time PCR in peripheral tissues to identify genes that were differentially expressed in response to oral administration of oleoylethanolamide (OEA) or a non-hydrolysable OEA analog (KDS 5104), which affect satiety, lipid metabolism, fat utilization, food intake, and body fat mass.
(§2) Animals, diet, and experimental design. Adult male C57bl6j mice purchased at 8 weeks of age were individually housed and maintained ad libitum on high fat diet and water for 2 weeks. Seven mice were randomly allocated in 3 groups and fed with a high fat diet (lipids represented 50% of daily energy) for 2 weeks. […]
(§3) RNA extraction and gene expression. […] The RNA concentration was determined on nanodrop from the absorbance at 260 nm. […] Real-time quantitative PCR (RT-qPCR) were performed on cDNA obtained as described above using a high through put system (Biomek 3000, Beckman & Coulter, Fullerton, USA) and a Lightcycler 480 (Roche/Hitachi, Basel, Switzerland) with SYBR Green Master mix+kit (Eurogentec, Philadelphia, USA). […] Values were expressed as ratio of RNA levels relative to control mice (diets with 0 mg of OEA/kg/body weight) using ΔΔ(Ct) (Livak K J & Schmittgen T D, 2001, Methods 25:402-8). Gene expression of the following genes was measured (abbreviation and GenBank Accession shown in parentheses). […]

[2] = tested on: Fatty acid amide hydrolase (FAAH); experiment: Real-time PCR gene expression in peripheral tissues: FAAH; assay type: in vivo; details: C57bl6j mice, high fat diet, 100 mg/kg/body weight in diet, 5 weeks
Procedure: as §1
(§4) Animals, diet, and experimental design. Adult male C57bl6j mice purchased at 8 weeks of age were individually housed and maintained ad libitum on high fat diet and water for 2 weeks. Seven mice were randomly allocated in 3 groups and fed with a high fat diet (lipids represented 50% of daily energy) for 2 weeks. For one kilogram, the composition of the high fat diet was: 235 g casein, 201 g saccharose, 3.5 g L-cystine, 85 g starch, 116 g maltodextrin, 60 g cellulose, 12 g vitamins mix (AIN-93M, UPAE, Jouy-en-Josas, France), 51.5 g mineral mix (AIN-93Vx, UPAE, Jouy-en-Josas, France), and 236 g lard. Then, either OEA or KDS 5104 was added to the diet at a concentration of 100 mg/kg/body weight. The mice were kept under treatment for 5 weeks.
(§5) Sampling. At the end of the experimental period, mice were sacrificed by blood drawing (cardiac puncture) after anesthesia with isoflurane. Plasma was obtained by centrifugation (1,000 g for 10 min at 4° C.). Mesenteric, epididymal, inguinal and peritoneal adipose depots, as well as liver, stomach, small intestine mucosa, pancreas, and gastrocnemian muscle were removed and frozen into liquid nitrogen. Plasma, urine, feces, and organ samples were kept at −80° C. until analysis.
(§6) RNA extraction and gene expression. Total RNA from liver, intestine mucous membrane, adipose tissues, gastrocnemian muscle, pancreas and stomach were extracted with TRIzol reagent (Invitrogen, Carlsbad, USA) according to the manufacturer's instruction. The RNA concentration was determined on nanodrop from the absorbance at 260 nm. Retro-transcription PCRs to synthesize cDNA were performed using an Applied Biosystem Thermal Cycler 2720 and Superscript II (Invitrogen, Carlsbad, USA) according to manufacturer's protocol. Real-time quantitative PCR (RT-qPCR) were performed on cDNA obtained as described above using a high through put system (Biomek 3000, Beckman & Coulter, Fullerton, USA) and a Lightcycler 480 (Roche/Hitachi, Basel, Switzerland) with SYBR Green Master mix+kit (Eurogentec, Philadelphia, USA). Primers for the selected genes were generated using online informatics assistance from the Lightcycler manufacturer (Roche). Databases used to identify the genes were (1) the NCBI database (GenBank) and (2) the IHOP (Information Hyperlinked over Protein) database (www.ihop-net.org/UniPub/iHOP/bng/). Values were expressed as ratio of RNA levels relative to control mice (diets with 0 mg of OEA/kg/body weight) using ΔΔ(Ct) (Livak K J & Schmittgen T D, 2001, Methods 25:402-8). Gene expression of the following genes was measured (abbreviation and GenBank Accession shown in parentheses).
(§7) Statistical analysis. […] Statistical analysis of physiological parameters and gene expression data was performed by one-way ANOVA on Statview software (SAS Institute, Cary, USA). Daily food intake was analyzed using two-way ANOVA on Statview software. Statistical significance was set up at the P<0.05 level, the P<0.01 level and the P<0.001 level. For statistical analysis of the gene expression data, values were calculated relative to 18S expression for each mouse and gene.

[3] = Chronic oral OEA in high fat diet: liver, adipose fat pads and body weight; assay type: in vivo; details: C3H mice, 4 weeks
Text: (§8) The physiological and biochemical effects of chronic oral OEA administration were investigated. Mice were chronically fed with OEA, provided as a supplement during 4 weeks, to study the effect on body weight gain and cumulative food intake, among other parameters.
(§9) Animals, diet and experimental design. Adult male C3H mice purchased at 8 weeks of age were individually housed and maintained ad libitum on different diets and water for 2 weeks. Seven mice were allocated in 3 groups by randomization by weight, and fed with a high fat diet (lipids represented 50% of daily energy) during 2 weeks. The composition of the high fat diet per kg was: 284.5 g of corn starch, 89.5 g of saccharose, 250 g of casein, 50 g of cellulose, 10 g of a mix of vitamins (V1001), 35 g of a mix of minerals (S10026) and 281 g of canola oil (UPAE, Jouy en Josas, France). Then, OEA was added to the diets at different levels to provide 0, 10, or 100 mg OEA/kg body weight. The mice were kept on each respective diet for 4 weeks. During the nutritional intervention, daily food intake was monitored and the mice were weighed 3 times a week.
Sampling. At the end of the experimental period, mice were sacrificed by blood drawing after anesthesia with isoflurane. Plasma was obtained by centrifugation (1,000 g for 10 min at 4° C.). Mesenteric, epididymal, inguinal and peritoneal adipose depots, as well as liver, stomach, small intestine mucosa and gastrocnemian muscle were excised and frozen into liquid nitrogen. Plasma and organ samples were kept at −80° C. until analysis. Triglycerides, glucose, total cholesterol and HDL cholesterol were directly measured on plasma samples collected during the sacrifice by enzymatic procedures, using a Beckman Coulter Systems SYNCHRON LX 20 (Beckman Coulter, Fullerton, USA) (oxidase method, Beckman Coulter for glucose, GPO method, Beckman Coulter for TG, oxidase and esterase method, Beckman Coulter for cholesterol). HDL were isolated by specific solubilization, using a precipitation isolation kit (Beckman Coulter, Fullerton, USA).
(§10) Statistical analysis. Results were determined as mean±standard error of the mean (SEM). Statistical analysis of physiological parameters was performed by one-way ANOVA on Statview software (SAS institute, Cary, USA). Statistical significance was set up at the P<0.05 level.

[4] = tested on: Oleoylethanolamide synthase (OEA synthase); experiment: Real-time PCR gene expression in peripheral tissues: OEA synthase; assay type: in vivo; details: proximal intestine; C57bl6j mice, high fat diet, 100 mg/kg/body weight in diet, 5 weeks
Procedure: as §1, §2, §3

[5] = tested on: Glucose 6-phosphatase (G6P); experiment: Real-time PCR gene expression in peripheral tissues: G6P; assay type: in vivo; details: liver; C57bl6j mice, high fat diet, 100 mg/kg/body weight in diet, 5 weeks
Procedure: as §1, §2, §3

[6] = cited from earlier work
[7] = Chronic oral OEA in high fat diet: food intake; assay type: in vivo; details: C3H mice, 4 weeks
Text: as §8, §9, §10

[8] = tested on: Fatty Acid Synthase (FAS 1); experiment: Real-time PCR gene expression in peripheral tissues: FAS; assay type: in vivo; details: liver; C57bl6j mice, high fat diet, 100 mg/kg/body weight in diet, 5 weeks
Procedure: as §1, §2, §3

Leptin = experiment: Real-time PCR gene expression in peripheral tissues: leptin; assay type: in vivo; details: C57bl6j mice, high fat diet, 100 mg/kg/body weight in diet, 5 weeks
Procedure: as §1, §4, §5, §6, §7

[9] = rodents, intraperitoneal administration

Structure (SMILES): CCCCCCCC/C=C\CCCCCCCC(=O)NCCO [OEA, N-oleoyl-ethanolamide]
- PepCK l, ratio of RNA levels relative to control mice [1]: 1.02
- FAAH at ep, ratio of RNA levels relative to control mice ([2]; epidydimal adipose tissue): 2.22
- FAAH at per, ratio of RNA levels relative to control mice ([2]; peritoneal adipose tissue): 1.62
- FAAH i, ratio of RNA levels relative to control mice ([2]; proximal intestine): 1.68
- mesenteric fat pads ([3]; independently of the dose): remained unaffected
- Peritoneal adipose tissue ([3]; OEA 10 or 100 mg/kg body weight): mainly decreased
- Hepatomegaly ([3]; OEA in diet): did not induce hepatomegaly
- final body weight ([3]; OEA in diet): not affected
- inguinal fat pads (indicator of subcutaneous fat depot) ([3]; OEA in diet, P<0.05): decreased
- OEA synthase i, ratio of RNA levels relative to control mice [4]: −1.38
- G6P l, ratio of RNA levels relative to control mice [5]: 1.29
- food intake (meal size, first meal delay, meal intervals) ([6]; administrated intraperitoneally): reduced food intake
- body fat gain [6, 9]: reduced body fat gain
- satiety and lipid utilization [6, 9]: induce satiety and peripheral utilization of lipid substrate
- Dose dependence of the effect on food intake ([7]; 10 vs 100 mg/kg body weight): not dose dependent
- Food intake, change in mice consuming OEA ([7]; high fat diet, OEA 10 or 100 mg/kg body weight in diet, P<0.05): −6.5%
- FAS l, ratio of RNA levels relative to control mice [8]: 1.65
- leptin at ep, ratio of RNA levels relative to control mice (Leptin; epidydimal adipose tissue): 1.22
- leptin at per, ratio of RNA levels relative to control mice (Leptin; peritoneal adipose tissue): 3.44
- leptin s, ratio of RNA levels relative to control mice (Leptin; stomach): 1.41
